Test results reported in paper PMC4687057, “The function of phosphatidylinositol 5-phosphate 4-kinase γ (PI5P4Kγ) explored using a specific inhibitor that targets the PI5P-binding site” (Biochemical Journal, 2015).

Columns and labels:
[1] = molecular target: T1, phosphatidylinositol 5-phosphate 4-kinase γ (PI5P4Kγ) (Homo sapiens, UniProt Q8TBX8); assay: HDX-MS with purified protein; IC50 from […]P lipid kinase assay on recombinant enzyme; format: biochemical
T1 construct: gene PIP4K2C; PI5P4Kγ from GST fusion (pGEX6P), GST cleaved with PreScission protease
T1 sequence (Q8TBX8 2-421): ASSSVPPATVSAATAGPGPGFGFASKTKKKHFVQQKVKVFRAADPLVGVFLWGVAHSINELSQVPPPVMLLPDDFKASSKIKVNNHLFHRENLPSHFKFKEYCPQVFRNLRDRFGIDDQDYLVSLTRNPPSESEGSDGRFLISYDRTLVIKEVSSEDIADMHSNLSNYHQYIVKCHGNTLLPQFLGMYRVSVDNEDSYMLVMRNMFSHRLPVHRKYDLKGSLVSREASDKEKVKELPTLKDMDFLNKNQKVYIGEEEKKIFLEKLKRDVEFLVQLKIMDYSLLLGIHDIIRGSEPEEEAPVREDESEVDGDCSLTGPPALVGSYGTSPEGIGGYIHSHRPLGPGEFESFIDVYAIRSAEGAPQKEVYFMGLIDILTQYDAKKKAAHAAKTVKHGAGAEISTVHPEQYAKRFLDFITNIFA

[2] = molecular target: T2, PI5P4Kγ+ (E378H,I159V,D161V) mutant (Homo sapiens, UniProt Q8TBX8, D161V/E153T/I159V/Q378H); assay: […] lipid kinase assay, % inhibition at […]; format: biochemical
T2 construct: gene PIP4K2C
T2 sequence (Q8TBX8 2-421 E153T/I159V/D161V/Q378H): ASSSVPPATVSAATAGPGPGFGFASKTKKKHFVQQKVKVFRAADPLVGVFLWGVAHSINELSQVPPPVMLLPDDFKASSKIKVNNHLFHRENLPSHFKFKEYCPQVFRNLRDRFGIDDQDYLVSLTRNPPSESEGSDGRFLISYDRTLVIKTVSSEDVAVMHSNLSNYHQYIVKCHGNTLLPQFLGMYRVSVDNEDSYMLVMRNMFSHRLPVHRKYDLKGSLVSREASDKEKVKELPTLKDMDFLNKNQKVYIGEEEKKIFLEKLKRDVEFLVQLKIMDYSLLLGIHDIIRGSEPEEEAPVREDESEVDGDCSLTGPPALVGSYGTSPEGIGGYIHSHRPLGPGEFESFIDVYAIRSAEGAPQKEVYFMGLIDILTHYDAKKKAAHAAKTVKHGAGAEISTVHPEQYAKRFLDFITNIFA

## FC(F)(F)c1ccccc1-c1nc(NCc2cccs2)c2ccccc2n1 [compound 1, NIH-12848]
[1]
  IC50: 3.3 µM
[2]
  inhibition at 10 µM: 71%
